# Target: T1, human GnRH receptor (Homo sapiens, UniProt P30968)
# T1 construct: line established by Prof; Thomas Gudermann; host or cells: CHO cells
# T1 sequence (P30968 1-328): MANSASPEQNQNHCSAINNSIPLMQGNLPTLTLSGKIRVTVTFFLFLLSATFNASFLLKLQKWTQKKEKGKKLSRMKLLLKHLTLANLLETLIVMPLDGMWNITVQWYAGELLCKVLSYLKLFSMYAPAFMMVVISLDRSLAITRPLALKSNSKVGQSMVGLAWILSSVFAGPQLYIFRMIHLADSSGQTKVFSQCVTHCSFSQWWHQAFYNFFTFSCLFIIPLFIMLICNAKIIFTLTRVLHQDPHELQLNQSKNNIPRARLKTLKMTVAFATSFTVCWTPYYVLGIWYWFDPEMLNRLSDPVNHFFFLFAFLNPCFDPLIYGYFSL
# Test: IP-One HTRF assay (inhibition of GnRH-R activation by buserelin)
# Type: cell-based
# Conditions: IP-One HTRF assay with buserelin (at EC80) stimulation; CHO cells stably expressing human GnRH receptor; tested 20 µM to 1 nM; read-out: Potency IC50
# From the text: By using homogenous time-resolved fluorescence resonance energy transfer (HTRF), the generation of one component of the GnRH-R signalling cascade can be measured. After stimulation of CHO cells stably expressing human GnRH receptor (established by Prof. Thomas Gudermann, currently University of Marburg, Germany; supplied as frozen cell aliquots by Cell Culture Services, Hamburg, Germany) with the EC80 of the GnRH agonist buserelin, Gq protein-coupled receptor signalling cascade is activated resulting in PLC-dependent cleavage of PIP2 to Inositol-1,4,5-triphosphate (IP3) and Diacylglycerol. The second messenger IP3 is degraded intracellularly to myo-inositol. Inhibition of the final degradation step from Inositol-1-phosphate (IP1) to myo-inositol by addition of lithium chloride leads to accumulation of IP1 in the cells. In cell lysates, IP1 can be detected via an antibody-based HTRF detection technology, where IP1 can displace the FRET acceptor IP1-d2 from binding by Terbium-labelled anti-IP1 antibody as donor resulting in a signal decrease. Compounds were tested for their capability of inhibiting GnRH-R activation by buserelin. For all IP-One HTRF® assays reagents of Cisbio Bioassays (IP-One Tb Jumbo kit, #62IPAPEJ; Cisbio Bioassays, Bagnols sur Cèze Cedex, France) were used.
# For the assay, frozen cell aliquots were thawed and a cell suspension (3.33x10^6 cells/ml) containing IP1-d2 (dilution 1:40) was prepared and incubated at 37°C. After 1 h 3 µl of the cell suspension were added to 50 nl of a 100-fold concentrated solution of the test compound in DMSO pre-dispensed in a well of a white low-volume 384-well microtiter plate (Greiner Bio-One, Frickenhausen, Germany). The mixture was incubated for 20 min at 22°C to allow for pre-binding of the test compound to the GnRH-R. The receptor signaling cascade was stimulated by addition of 2 µl buserelin or LHRH (at EC50 or EC80) in stimulation buffer (10 mM Hepes pH 7.4, 1 mM CaCl2, 0.5 mM MgCl2, 4.2 mM KCI, 146 mM NaCl, 5.5 mM α-D-Glucose, 0.05% BSA, 125 mM LiCl (final assay concentration 50 mM) in aqua dest.). Plates were incubated for 1 h at 37°C and 5% carbon dioxide before the cells were lysed by adding 3 µl Terbium-labelled anti-IP1 antibody (1:40) diluted in Conjugate & Lysis buffer as supplied with the kit. After an incubation for 1 h at 22°C to enable complete cell lysis and antibody binding to free IP1 or IP1-d2, plates were measured in an HTRF reader, e.g. a RUBYstar, PHERAstar (both BMG Labtechnologies, Offenburg, Germany) or a Viewlux (PerkinElmer LAS, Rodgau-Jügesheim, Germany). From the fluorescence emissions at 665 nm (FRET) and at 620 nm (background signal of Terbium-antibody), the ratio (emission at 665 nm divided by emission at 620 nm) was calculated and the data were normalized (reaction without test compound = 0% inhibition; all other assay components except agonist = 100% inhibition). On the same microtiter plate, compounds were tested at 10 different concentrations in the range of 20 µM to 1 nM (20 µM, 6.7 µM, 2.2 µM, 0.74 µM, 0.25 µM, 82 nM, 27 nM, 9.2 nM, 3.1 nM and 1 nM; dilution series prepared before the assay at the level of the 100-fold conc. stock solutions by serial 1:3 dilutions in 100% DMSO) in duplicate values for each concentration. By using an in-house software, the IC50 values were calculated by a 4 parameter fit. The data reveal that the compounds of the present invention have antagonist activities on the human GnRH receptor. Within the meaning of the present invention the antagonist activity is reflected by the ability of a compound of the invention to antagonize human GnRH receptor stimulation in IP-One HTRF® assay at least three times the standard deviation over the background level.
row,Compound,IC50 [nM]
1,"COC(=O)c1cccc(S(=O)(=O)N2c3ccc(C(=O)NCc4ncc(C(F)(F)F)cc4F)cc3C3(CCC(O)(C(F)(F)F)CC3)C2C2CC2)c1 (stereo not shown) [Example 28, methyl 3-{[2'-cyclopropyl-5'-({[3-fluoro-5-(trifluoromethyl)pyridin-2-yl]methyl}carbamoyl)-4-hydroxy-4-(trifluoromethyl)spiro[cyclohexane-1,3'-indol]-1'(2'H)-yl]sulfonyl}benzoate]",1780
2,"COC(=O)c1cccc(S(=O)(=O)N2c3ccc(C(=O)NCc4ncccc4C(F)(F)F)cc3C3(CCC(O)(C(F)(F)F)CC3)C2C2CC2)c1 (stereo not shown) [Example 29, methyl 3-{[2'-cyclopropyl-4-hydroxy-4-(trifluoromethyl)-5'-({[3-(trifluoromethyl)pyridin-2-yl]methyl}carbamoyl)spiro[cyclohexane-1,3'-indol]-1'(2'H)-yl]sulfonyl}benzoate]",612
3,"COC(=O)c1cccc(NC(=O)c2ccc3c(c2)C2(CCC(O)(C(F)(F)F)CC2)C(C2CC2)N3S(=O)(=O)c2cccc(OC)c2)c1 (stereo not shown) [Example 31, methyl 3-[({2'-cyclopropyl-4-hydroxy-1'-[(3-methoxyphenyl)su Ifonyl]-4-(trifluoromethyl)-1',2'-dihydrospiro[cyclohexane-1,3'-indol]-5'-yl}carbonyl)amino] benzoate]",669
4,"COC(=O)c1cccc(NC(=O)c2ccc3c(c2)C2(CCC(O)(C(F)(F)F)CC2)C(CC=C(C)C)N3S(=O)(=O)c2ccc(F)cc2)c1 (stereo not shown) [Example 32, methyl 3-[({1'-[(4-fluorophenyl)sulfonyl]-4-hydroxy-2'-(3-methylbut-2-en-1-yl)-4-(trifluoromethyl)-1',2'-dihydrospiro[cyclohexane-1,3'-indol]-5'-yl}carbonyl)amino] benzoate]",494
5,"COc1cccc(S(=O)(=O)N2c3ccc(C(=O)Nc4cc[nH]n4)cc3C3(CCC(O)(C(F)(F)F)CC3)C2C2CC2)c1 (stereo not shown) [Example 33, 2'-cyclopropyl-4-hydroxy-1'-[(3-methoxyphenyl)su Ifonyl]-N-(1H-pyrazol-3-yl)-4-(trifluoromethyl)-1',2'-dihydrospiro[cyclohexane-1,3'-indole]-5'-carboxamide]",2230
6,"COc1cccc(S(=O)(=O)N2c3ccc(C(=O)Nc4cccc(C)c4)cc3C3(CCC(O)(C(F)(F)F)CC3)C2C2CC2)c1 (stereo not shown) [Example 34, 2'-cyclopropyl-4-hydroxy-1'-[(3-methoxyphenyl)su Ifonyl]-N-(3-methylphenyl)-4-(trifluoromethyl)-1',2'-dihydrospiro[cyclohexane-1,3'-indole]-5'-carboxamide]",3410
7,"COc1cccc(S(=O)(=O)N2c3ccc(C(=O)Nc4cccc(C(=O)O)c4)cc3C3(CCC(O)(C(F)(F)F)CC3)C2C2CC2)c1 (stereo not shown) [Example 35, 3-[({2'-cyclopropyl-4-hydroxy-1 '-[(3-methoxyphenyl)su Ifonyl]-4-(trifluoromethyl)-1',2'-dihydrospiro[cyclohexane-1,3'-indol]-5'-yl}carbonyl)amino] benzoic acid]",1380
8,"COc1cccc(S(=O)(=O)N2c3ccc(C(=O)Nc4cccc(S(C)(=O)=O)c4)cc3C3(CCC(O)(C(F)(F)F)CC3)C2C2CC2)c1 (stereo not shown) [Example 36, 2'-cyclopropyl-4-hydroxy-1'-[(3-methoxyphenyl)su Ifonyl]-N-[3-(methylsulfonyl)phenyl]-4-(trifluoromethyl)-1',2'-dihydrospiro[cyclohexane-1,3'-indole]-5'-carboxamide]",1270
9,"COc1cccc(S(=O)(=O)N2c3ccc(C(=O)Nc4cccc(S(N)(=O)=O)c4)cc3C3(CCC(O)(C(F)(F)F)CC3)C2C2CC2)c1 (stereo not shown) [Example 37, 2'-cyclopropyl-4-hydroxy-1'-[(3-methoxyphenyl)su Ifonyl]-N-(3-sulfamoylphenyl)-4-(trifluoromethyl)-1',2'-dihydrospiro[cyclohexane-1,3'-indole]-5'-carboxamide]",2640
10,"COc1cccc(S(=O)(=O)N2c3ccc(C(=O)Nc4ccon4)cc3C3(CCC(O)(C(F)(F)F)CC3)C2C2CC2)c1 (stereo not shown) [Example 38, 2'-cyclopropyl-4-hydroxy-1'-[(3-methoxyphenyl)su Ifonyl]-N-(1,2-oxazol-3-yl)-4-(trifluoromethyl)-1',2'-dihydrospiro[cyclohexane-1,3'-indole]-5'-carboxamide]",1680
11,"COc1cccc(S(=O)(=O)N2c3ccc(C(=O)Nc4cncc(C)c4)cc3C3(CCC(O)(C(F)(F)F)CC3)C2C2CC2)c1 (stereo not shown) [Example 39, 2'-cyclopropyl-4-hydroxy-1'-[(3-methoxyphenyl)su Ifonyl]-N-(5-methylpyridin-3-yl)-4-(trifluoromethyl)-1',2'-dihydrospiro[cyclohexane-1,3'-indole]-5'-carboxamide]",1680
12,"COc1cccc(S(=O)(=O)N2c3ccc(C(=O)Nc4cncc(C(F)(F)F)c4)cc3C3(CCC(O)(C(F)(F)F)CC3)C2C2CC2)c1 (stereo not shown) [Example 40, 2'-cyclopropyl-4-hydroxy-1'-[(3-methoxyphenyl)su Ifonyl]-4-(trifluoromethyl)-N-[5-(trifluoromethyl)pyridin-3-yl]-1',2'-dihydrospiro[cyclohexane-1,3'-indole]-5'-carboxamide]",5650
13,"COc1cccc(S(=O)(=O)N2c3ccc(C(=O)Nc4ncco4)cc3C3(CCC(O)(C(F)(F)F)CC3)C2C2CC2)c1 (stereo not shown) [Example 41, 2'-cyclopropyl-4-hydroxy-1'-[(3-methoxyphenyl)su Ifonyl]-N-(1,3-oxazol-2-yl)-4-(trifluoromethyl)-1',2'-dihydrospiro[cyclohexane-1,3'-indole]-5'-carboxamide]",1490
14,"COc1cccc(S(=O)(=O)N2c3ccc(C(=O)NCC4CCCCC4)cc3C3(CCC(O)(C(F)(F)F)CC3)C2C2CC2)c1 (stereo not shown) [Example 42, N-(cyclohexylmethyl) -2'-cyclopropyl-4-hydroxy-1'-[(3-methoxyphenyl)su Ifonyl]-4-(trifluoromethyl)-1',2'-dihydrospiro[cyclohexane-1,3'-indole]-5'-carboxamide]",1880
15,"COc1cccc(S(=O)(=O)N2c3ccc(C(=O)NCc4ccccc4Cl)cc3C3(CCC(O)(C(F)(F)F)CC3)C2C2CC2)c1 (stereo not shown) [Example 43, N-(2-chlorobenzyl)-2'-cyclopropyl-4-hydroxy-1'-[(3-methoxyphenyl)su Ifonyl]-4-(trifluoromethyl)-1',2'-dihydrospiro[cyclohexane-1,3'-indole]-5'-carboxamide]",621
16,"COc1cccc(S(=O)(=O)N2c3ccc(C(=O)NCc4ncccc4C(F)(F)F)cc3C3(CCC(O)(C(F)(F)F)CC3)C2C2CC2)c1 (stereo not shown) [Example 44, 2'-cyclopropyl-4-hydroxy-1'-[(3-methoxyphenyl)su Ifonyl]-4-(trifluoromethyl)-N-{[3-(trifluoromethyl)pyridin-2-yl]methyl}-1',2'-dihydrospiro[cyclohexane-1,3'-indole]-5'-carboxamide]",403
